US12194014B2, “Platinum-based amphiphile prodrugs” (NANOMED HOLDINGS PTY LTD, priority 2018, dated 2025)

Assays:
[1] = SAXS of neat and hydrated amphiphiles (phase, lattice parameter); format: physicochemical; conditions: for lattice parameter, hydrated / phase, hydrated: excess water
Procedure: SAXS analyses of the bulk and lyotropic phases of the amphiphiles were performed on a Bruker NanoSTAR laboratory SAXS instrument (Brucker AXS, Kalsruhe, Germany).
(§1) The equilibrated lyotropic phases were placed into a demountable button sample cell. For the analysis of the dispersions, a multi-capillary holder was used. Button cells and capillary holder interchangeably fit into a block setup that was temperature-controlled with a Peltier heater-cooler system. 2D scattering images were radially averaged to conventional 1 D scattering plots and as a function of the q value (Å^−1) where q is the length of the scattering vector which was calculated using the formula q=(4π/λ) sin(θ/2), where λ is the wavelength and θ is the scattering angle.
(§2) Small angle X-ray scattering patterns of emulsions and liposomes display large broad peaks while liquid crystalline phases of highly ordered nanostructured particles such as cubosomes and hexosomes display distinct sharp peaks. The relative positions of the peaks (“spacing”) allows for the elucidation of the symmetry of the structure. The interplanar distance (d) between two reflecting planes may be calculated using the formula d=(2π)/q, where q is the absolute position of the peak. This, in turn allows for the calculation of the lattice parameter (a), the size of the unit cell, to be calculated.

[2] = Mesophase behaviour by polarized optical microscopy (POM); format: physicochemical; conditions: for POM observation on exposure to water: 25° C. and 37° C.; for Appearance of the Lyotropic phase at excess water (25° C.-50° C.): POM, equilibration 1 h
Procedure: Polarized Optical Microscopy (POM): Samples used for Polarized Optical Microscopy (POM) were prepared by placing a small amount of prodrug amphiphile on a microscope slide and covered with a cover slip. Water was placed on the edges of the cover slip and allowed to flow into the sample by capillary action. The microscope slide was placed in a Linkam PE94 hot stage (Linkam Scientific Instruments Ltd. Surrey, England) and heated at 3° C./min between room temperature and 50° C. […] Images were captured with a Nikon DS-Ri-1 camera. All images were taken at 100× magnification.
The formation of lyotropic mesophases is based on the interaction of the prodrug amphiphile with water. Polarized optical microscopy was used to study the liquid crystalline or crystalline structures of the prodrug amphiphiles. This method was used as a preliminary and qualitative investigation to observe the morphological changes of the amphiphile as well as to predict the structural changes of the mesophases which may form upon hydration with water. For each prodrug amphiphile, a small amount of the neat and dry sample was placed on a microscope slide and covered with a cover slip. Water was placed on the edges of the cover slip to allow to flow into the sample by capillary action. Images were captured at 25° C. before and after the addition of water and at 37° C. after exposure to water. 37° C. was selected due to its physiological relevance. […]

[3] = SAXS / synchrotron SAXS of dispersed nanoparticles; format: physicochemical; conditions: dispersion with PEG stabiliser
Procedure: as §1, §2
The CP prodrug amphiphiles were hydrated with warm PBS containing 10-30% PEG4K-oleoyl or other steric stabilisers such F108 or F127 and sonicated in a sonicator bath and using a probe sonicator resulting in the lipid emulsion. The nanoparticles were then processed through a polycarbonate membrane (3×400 nm, 3×200 nm and 3×100 nm) using an extruder (Avestin, LipoFast LF-50) in order to ensure homogenous sizing. The CP prodrug-phospholipid/cholesterol nanoparticles were prepared by mixing the CP amphiphiles, DMPC and cholesterol in ethanol, followed by vigorous mixing and gentle evaporation under reduced pressure resulting in a thin film. The thin film was then hydrated with warm PBS containing 10-30% of PEG4K-oleoy solution, sonicated in a sonicator bath and using a probe sonicator resulting in the lipid emulsion. The nanoparticles were then processed through a polycarbonate membrane (3×400, 3×200 nm, 9×100 nm) using an extruder (Avestin, LipoFast LF-50) in order to ensure homogenous sizing between 20-200 nm.

[4] = Reduction kinetics of Pt (IV) prodrug nanoparticles with ascorbic acid (LC-MS); format: in vitro ADME
Procedure: The reducing agent was applied at concentrations corresponding to those found in the living cells' environment, e.g. 1 mM ascorbic acid or 2 mM glutathione (GSH).
Dispersed nanoparticles of Pt (IV) prodrug amphiphiles were mixed with GSH, ascorbic acid or their combination. The ratios of the reducing agents to platinum prodrugs were 10:1 or 50:1 for ascorbic acid and 20:1 for GSH. The reduction kinetics was analysed by LC-MS via monitoring the peaks related to each prodrug amphiphile. The prodrugs were detected by negative ions optimised for each platinum amphiphile. The reduction kinetics was plotted as the percentage of the area under the peak of Pt (IV)-prodrug compared to the peak before the addition of the reducing agent against the time of incubation. At each time point 10 μl of a sample withdrawn from the reaction solution was injected directly into a Phenomenex C8 150 mm×2 mm 5 μm Luna column (Phenomenex, Australia). A 100% Methanol solution was used as the mobile phase with a flow rate of 0.5 ml/min for 8 minutes. The sample after the column separation was eluted to the ESI source. […] The samples were well maintained at a temperature of 37° C. during the entire measurement by incubation in the temperature-controlled auto-sampler. Data was acquired and processed with Xcalibur Quan chromatography software.

CC(C)CCCC(C)CCCC(C)CCCC(C)CC(=O)[O][Pt]([NH2])([NH2])([Cl])([Cl])[O]C(=O)CC(C)CCCC(C)CCCC(C)CCCC(C)C (mixture of isomers) [CP-bis (phytanoyl), cis,cis,trans-[PtCl2(NH3)2(phytanoyl)2]]
lattice parameter, neat non-hydrated ([1]; 25° C.): 37.3 ± 0.5 Å
phase, neat non-hydrated ([1]; 25° C.): LC1
lattice parameter, neat non-hydrated ([1]; 37° C.): 37.3 ± 0.5 Å
phase, neat non-hydrated ([1]; 37° C.): LC1
lattice parameter, hydrated ([1]; 25° C.): 37.3 ± 0.5 Å
phase, hydrated ([1]; 25° C.): LC1
lattice parameter, hydrated ([1]; 37° C.): 39.8 ± 0.5 Å
phase, hydrated ([1]; 37° C.): LC1
POM observation on exposure to water [2]: amenable to swelling to some extent
Appearance of the Lyotropic phase at excess water (25° C.-50° C.) [2]: No distinct mesophases

CCCCCCCC/C=C\CCCCCCCC(=O)OCCOCCOCCOC(=O)[O][Pt]([NH2])([NH2])([Cl])([Cl])[O]C(=O)OCCOCCOCCOC(=O)CCCCCCC/C=C\CCCCCCCC [CP-bis (PEG3-oleoyl), cis,cis,trans-(PtCl2(-triethyleneglycolyl-oleoyl)2)]
lattice parameter, hydrated ([1]; 25° C.): 43.93 ± 0.5 Å
lattice parameter, neat non-hydrated ([1]; temperature not given): 40.80 ± 0.5 Å
POM observation on exposure to water [2]: formation of a lamellar liquid crystalline structures
lattice parameter of dispersed nanoparticles [3]: 44.28±0.5 Å
structure of dispersed nanoparticles [3]: lamellar dispersed nanoparticle

CCCCCCCCCCCC(=O)[O][Pt]([Cl])([Cl])[O]C(=O)CCCCCCCCCCC.N.N [CP-bis (lauroyl), cis,cis,trans-[PtCl2(NH3)2(lauroyl)2]]
POM observation on exposure to water [2]: no observable difference after hydration with water at either 25 or 37 °C

CCCCC/C=C\C/C=C\CCCCCCCC(=O)[O][Pt]([Cl])([Cl])[O]C(=O)CCCCCCC/C=C\C/C=C\CCCCC.N.N [CP-bis (linoleoyl), cis,cis,trans-[PtCl2(NH3)2(linoleoyl)2]]
lattice parameter, hydrated ([1]; temperature not given): 33.5 ± 0.5 Å
phase, hydrated ([1]; temperature not given): LC1
lattice parameter, neat non-hydrated ([1]; temperature not given): 33.5 ± 0.5 Å
phase, neat non-hydrated ([1]; temperature not given): LC1
POM observation on exposure to water [2]: amenable to swelling to some extent
Appearance of the Lyotropic phase at excess water (25° C.-50° C.) [2]: No distinct mesophases

CCCCCCCCCCCCCC(=O)[O][Pt]([Cl])([Cl])[O]C(=O)CCCCCCCCCCCCC.N.N [CP-bis (myristoyl), cis,cis,trans-[PtCl2(NH3)2(myristoyl)2]]
POM observation on exposure to water [2]: amenable to swelling to some extent

CCCCCCCC/C=C\CCCCCCCC(=O)[O][Pt]([NH2])([NH2])([Cl])([Cl])[O]C(=O)CCCCCCC/C=C\CCCCCCCC [CP-bis (oleoyl), cis,cis,trans-[PtCl2(NH3)2(oleoyl)2]]
lattice parameter, hydrated ([1]; temperature not given): 34.2 ± 0.5 Å
phase, hydrated ([1]; temperature not given): LC1
lattice parameter, neat non-hydrated ([1]; temperature not given): 34.2 ± 0.5 Å
phase, neat non-hydrated ([1]; temperature not given): LC1
POM observation on exposure to water [2]: amenable to swelling to some extent
Appearance of the Lyotropic phase at excess water (25° C.-50° C.) [2]: No distinct mesophases

CCCCCCCCCCCCCCCC(=O)[O][Pt]([Cl])([Cl])[O]C(=O)CCCCCCCCCCCCCCC.N.N [CP-bis (palmitoyl), cis,cis,trans-[PtCl2(NH3)2(palmitoyl)2]]
POM observation on exposure to water [2]: amenable to swelling to some extent

CCCCCCCC/C=C\CCCCCCCC(=O)OCCOCCOCCNC(=O)CCC(=O)[O][Pt]([NH2])([NH2])([Cl])([Cl])[O]C(=O)CCC(=O)NCCOCCOCCOC(=O)CCCCCCC/C=C\CCCCCCCC [CP-bis(suc-amino-PEG3-oleoyl), cis,cis,trans-(PtCl2(NH3)2-(succinoyl-triethylene glycolyl-oleoyl)2)]
lattice parameter, hydrated ([1]; 25° C.): 46.54 ± 0.5 Å
lattice parameter, hydrated ([1]; 37° C.): 46.33 ± 0.5 Å
lattice parameter, neat non-hydrated ([1]; temperature not given): 46.20 ± 0.5 Å
lattice parameter of dispersed nanoparticles [3]: 47.62±0.5 Å
structure of dispersed nanoparticles [3]: multilamellar dispersed nanoparticle

CCCCCCCCCCCCCC(=O)[O][Pt]1([NH2])([NH2])([O]C(=O)CCCCCCCCCCCCC)[O]C(=O)C2(CCC2)C(=O)[O]1 [Carboplatin-bis (myristoyl), cis, trans [(Diamine) (1,1-cyclobutanedicarboxylato) (bis myristoyl)]]
Appearance of the Lyotropic phase at excess water (25° C.-50° C.) [2]: No distinct mesophase
maximum reduction ([4]; ascorbic acid as reducing agent, up to 24 h): 80%

CCCCCCCCCCCCCC(=O)OCCOCCOCCNC(=O)CCC(=O)[O][Pt]1([O]C(=O)CCC(=O)NCCOCCOCCOC(=O)CCCCCCCCCCCCC)[O]C(=O)C2(CCC2)C(=O)[O]1.N.N [Carboplatin-bis (suc-PEG3-myristoyl), cis, [Pt (Diamine) (1,1-cyclobutanedicarboxylato) (succinylamide-triethyleneglycol-myristoyl)2]]
Appearance of the Lyotropic phase at excess water (25° C.-50° C.) [2]: Lamellar

cis, trans [Oxaliplatin-bis (myristoyl), cis, trans [Pt ((1R, 2R)-1,2 cyclohexanediamine-N,N′) (oxalate(2-)O,O′) (myristoyl)2]]
reduction rate compared with carboplatin prodrug ([4]; 1 mM ascorbic acid, 0.1 mM prodrug in DMPC/cholesterol nanoparticles): higher rate up to 3 h compared with carboplatin prodrug
